Measured values reported in paper PMC12334608 (Nature Communications, 2025).
Where a chain is given by its changes, count along the chain named. Values joined by “and” are separate entries in the source; they are usually repeats but may differ in a detail not shown here. Identical values can stand only once.

Tests used:
Assay type in all cases: biochemical, C. elegans
ACOX-1.1(R343Q) = molecular target: T1, ACOX-1.1(R343Q) (Caenorhabditis elegans, UniProt O62140, R343Q); experiment: Enzyme-coupled kinetic assay, ACOX-1.1; conditions: varying ATP
T1 sequence (O62140 1-674 R343Q): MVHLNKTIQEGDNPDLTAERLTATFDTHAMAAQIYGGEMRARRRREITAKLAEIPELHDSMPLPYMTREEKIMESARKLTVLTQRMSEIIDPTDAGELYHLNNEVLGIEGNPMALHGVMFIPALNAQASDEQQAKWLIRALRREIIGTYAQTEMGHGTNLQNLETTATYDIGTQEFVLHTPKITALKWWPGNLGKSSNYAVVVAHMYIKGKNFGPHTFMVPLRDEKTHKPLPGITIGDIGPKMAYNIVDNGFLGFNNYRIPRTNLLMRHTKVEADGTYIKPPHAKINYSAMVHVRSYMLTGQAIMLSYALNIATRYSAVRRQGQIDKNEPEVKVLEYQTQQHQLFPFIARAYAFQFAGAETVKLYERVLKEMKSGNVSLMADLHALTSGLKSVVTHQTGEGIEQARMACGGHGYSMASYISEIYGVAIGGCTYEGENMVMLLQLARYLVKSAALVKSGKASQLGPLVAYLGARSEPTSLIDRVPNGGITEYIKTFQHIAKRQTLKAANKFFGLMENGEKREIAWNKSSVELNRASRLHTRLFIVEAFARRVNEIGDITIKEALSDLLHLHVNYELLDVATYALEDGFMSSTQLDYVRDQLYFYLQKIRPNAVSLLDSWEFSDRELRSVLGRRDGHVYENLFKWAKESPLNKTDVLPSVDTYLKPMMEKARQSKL

ACOX-1.1 = molecular target: T2, ACOX-1.1 (Caenorhabditis elegans, UniProt O62140); experiment: Enzyme-coupled kinetic assay, wild-type ACOX-1.1 as purified
T2 sequence (O62140 1-674): T1 sequence (O62140 1-674 R343Q) with Q343R

ACOX-1.1(R343A) = molecular target: T3, ACOX-1.1(R343A) (Caenorhabditis elegans, UniProt O62140, R343A); experiment: Enzyme-coupled kinetic assay, ACOX-1.1; conditions: varying ATP
T3 sequence (O62140 1-674 R343A): T1 sequence (O62140 1-674 R343Q) with Q343A

apo ACOX-1.1 = molecular target: T4, apo ACOX-1.1 (Caenorhabditis elegans, UniProt O62140); experiment: Enzyme-coupled kinetic assay, wild-type apo ACOX-1.1; conditions: EC50 for ATP
T4 sequence (O62140 1-674): T1 sequence (O62140 1-674 R343Q) with Q343R

EC50 (ACOX-1.1): 249 µM
EC50 (apo ACOX-1.1; 10 μM FAD, 95% CI: 54.8–87.1 μM): 69.4 µM and ~69.4 µM
EC50 (apo ACOX-1.1; 200 μM FAD, 95% CI: 40.5–328.8 μM): 111 µM
SMILES: Nc1ncnc2c1ncn2[C@@H]1O[C@H](COP(=O)(O)OP(=O)(O)OP(=O)(O)O)[C@@H](O)[C@H]1O [ATP]
influence of ATP on the activity of the enzyme (ACOX-1.1(R343Q)): no influence on the activity of the enzyme
influence of ATP on the activity of the enzyme (ACOX-1.1(R343A)): no influence on the activity of the enzyme
